According to US7262151B2, “Methods and compositions for production of lipo-chito oligosaccharides by rhizobacteria” (McGill University, priority 2001, dated 2007):
Read-outs that look alike come from different tables or passages of the source.

Legend:
Assay type in all cases: cell-based
[1] = tested on: nod genes in Bradyrhizobium japonicum strain USDA3; settings: for inhibitory or inducing activity in combinations (β-galactosidase assay): 25 and 50 μM with JA, MeJA and genistein (5 μM), FIGS. 3, 4, and 5; for nod gene induction (β-galactosidase activity): USDA3 (GG4), control 362 ± 25; for induction of nod genes (β-galactosidase activity vs control without inducer), in words: all concentrations, FIG. 1; for expression of nod genes (β-galactosidase assay), in words: 5-100 μM tested, FIG. 6; for nod gene induction at optimum concentration compared with optimum JA and MeJA concentrations / optimum concentration for nod gene induction: USDA3, β-galactosidase assay
Method: Bradyrhizobium japonicum strain USDA3, harboring plasmid GG4, was used in the experiment. Plasmid GG4 contains a translational fusion between B. japonicum nod Y open-reading frame and lac Z of Escherichia coli.
(§1) Bacteria were grown in yeast extract mannitol (YEM) medium (mannitol 10.0 g, K2HPO4 0.5 g, MgSO4.7H2O 0.2 g, NaCl 0.1 g, and yeast extract 0.4 g dissolved in 1000 mL of dd H2O). In order to ensure the maintenance of the strains, tetracycline was added to the bacterial cultures at a concentration of 20 mg 1^−1. One hundred mL cultures of each strain, in 250 mL flasks, were shaken at 150 rev min^−1 at 30° C. for 3-5 days and then subcultured into 400 mL of fresh medium in 1000 mL flasks. The cultures were incubated until the OD620 reached 0.2-0.3. The cultures were then divided into 5 mL tubes (sterilized).
(§2) Stock solutions of various inducers: genistein, salicylic acid and acetylsalicylic acid made in methanol and linolenic, linoleic, and jasmonic acid and methyl jasmonate were made in ethanol, and an appropriate amount of these inducers was added into the tubes before addition of bacterial culture. In the tubes, the final concentration of all the inducers was maintained as 5, 10, 25, 50 and 100 μM. Tubes were collected after 18 h of incubation and stored at −20° C. until the β-galactosidase activity was measured. Genistein (4′,5,7, trihydroxyisoflavone, purity 98%,), linolenic acid (9,12,15-Octadecatrienoic acid, purity 99%), linoleic acid (cis-9, cis-12-Octadecadienoic acid, purity 99%), jasmonic acid (±Jasmonic acid, C12H18O3) and salicylic acid (2-hydroxybenzoic acid, purity 99.0%) were obtained from Sigma, while acetylsalicylic acid (C9H8O4, 99% purity) was obtained from Acros and methyl jasmonate (95% purity) was obtained from Aldrich Chemical Company, Inc.
(§3) β-galactosidase is an enzyme which hydrolyzes β-D-galactosides. The activity of this enzyme can easily be measured with colorless substrates, which upon hydrolysis produce colored products. O-nitrophenyl-β-galactoside (ONPG) is a colorless compound and is converted to galactose and O-nitrophenol in the presence of β-galactosidase. The O-nitrophenol is yellow and can be measured by its absorption at 420 nm. In the present study, nod gene expression was indirectly measured by β-galactosidase activity following the method of Miller (1972) as modified by Stachel et al, (1985). Briefly, 0.5 mL culture was mixed with 2×Z buffer (Na2HPO4.7H2O, 16.1 g, NaH2PO4.H2O, 5.5 g, KCl 0.75 g, MgSO4.7H2O 0.246 g, β-mercaptoethanol 2.7 g, pH 7.0 dissolved in 500 mL water) and 40 μL toluene and vortexed for 10 seconds. The culture was then incubated in a water bath at 37° C. for 30 minutes and then 0.2 mL of O-nitrophenyl β-D-galactopyranoside (ONPG) was added at a concentration of 4 mg mL^−1. The cultures were incubated again in the water bath until the color of the culture changed. The reaction time was recorded and the reaction was stopped with 1M Na2CO3. After centrifugation at 10,000 rpm for 4 minutes, spectrophotometric reading at OD420 and OD600 were taken and the β-galactosidase activity was measured (β-galactosidase activity=OD420*1000/OD600*T*V, where T is the reaction time and V is the volume of the bacterial culture used for enzyme assay).
The experiment was designed in a randomized complete block design (RCBD) with three replicates. […] Data are shown from the second experiment. Statistical analysis of the data was done with analysis of variance using the Statistical Analysis System computer package (SAS Institute, 1988). Comparisons among treatment means were made with an ANOVA protected LSD at the 0.05 level of statistical significance.

[2] = tested on: nod genes in Bradyrhizobium japonicum strain USDA76; assay: nod gene induction, β-galactosidase assay, strain USDA 76 (GG2); settings: control 411.8 ± 26.8
Method: as §1, §2, §3
(§4) The effect of 0-100 μM concentrations of each of acetylsalicylic acid, salicylic acid, jasmonic acid, methyl jasmonate, and genistein, on induction of nod gene expression in Bradyrhizobium japonicum strains USDA31, USDA76, USDA121, and USDA3, was evaluated in accordance with the β-galactosidase assay of Experiment 1 in Example 1 above.

[3] = tested on: nod genes in Bradyrhizobium japonicum strain USDA31; assay: nod gene induction, β-galactosidase assay, strain USDA31 (GG1)
Method: as §1, §2, §3, §4

[4] = tested on: nod genes in Bradyrhizobium japonicum strain USDA121; assay: nod gene induction, β-galactosidase assay, strain USDA121 (GG3); settings: control 476.8 ± 86.6
Method: as §1, §2, §3, §4

[5] = 5 μM, control without inducer 522.6 ± 15.9

In the case of `CC(=O)Oc1ccccc1C(=O)O` [ASA, acetylsalicylic acid], the “inhibitory or inducing activity in combinations (β-galactosidase assay)” value [1] is reported as “did not show inhibitory or inducing activity”, the “nod gene induction (β-galactosidase activity)” value ([1]; 5 μM) is reported as 396 ± 14.7 and the “nod gene induction (β-galactosidase activity)” value ([1]; 10 μM) is reported as 372 ± 16. For the same compound, the “nod gene induction (β-galactosidase activity)” value ([1]; 25 μM) was 382 ± 16, the “nod gene induction (β-galactosidase activity)” value ([1]; 50 μM) was 464 ± 7 and the “nod gene induction (β-galactosidase activity)” value ([1]; 100 μM) was 527 ± 36. The “induction of nod genes (β-galactosidase activity vs control without inducer), in words” value [1] was “did not show any activity”, the “nod gene induction (β-galactosidase activity)” value ([2]; 5 μM) was 363.2 ± 34.1 and the “nod gene induction (β-galactosidase activity)” value ([2]; 10 μM) was 341 ± 21.1. For the same compound, the “nod gene induction (β-galactosidase activity)” value ([2]; 25 μM) was 418.8 ± 59.5, the “nod gene induction (β-galactosidase activity)” value ([2]; 50 μM) was 376.2 ± 37.2 and the “nod gene induction (β-galactosidase activity)” value ([2]; 100 μM) was 413.1 ± 85.5. For the same compound, the “nod gene induction (β-galactosidase activity)” value [3, 5] was 636.5 ± 66.9, the “nod gene induction (β-galactosidase activity)” value ([3]; 10 μM, control 522.6 ± 15.9) was 563.3 ± 37.9 and the “nod gene induction (β-galactosidase activity)” value ([3]; 25 μM, control 522.6 ± 15.9) was 719.5 ± 75.2. The “nod gene induction (β-galactosidase activity)” value ([3]; 50 μM, control 522.6 ± 15.9) was 676.6 ± 85.8, the “nod gene induction (β-galactosidase activity)” value ([3]; 100 μM, control 522.6 ± 15.9) was 384.8 ± 34.4 and the “nod gene induction (β-galactosidase activity)” value ([4]; 5 μM) was 422.6 ± 64.9. For the same compound, the “nod gene induction (β-galactosidase activity)” value ([4]; 10 μM) was 425 ± 39.4, the “nod gene induction (β-galactosidase activity)” value ([4]; 25 μM) was 479.9 ± 88.6 and the “nod gene induction (β-galactosidase activity)” value ([4]; 50 μM) was 445.4 ± 99. The “nod gene induction (β-galactosidase activity)” value ([4]; 100 μM) was 325.6 ± 58.8.
With `O=C(O)c1ccccc1O` [SA, 2-hydroxybenzoic acid] the “inhibitory or inducing activity in combinations (β-galactosidase assay)” value [1] was “did not show inhibitory or inducing activity”, the “nod gene induction (β-galactosidase activity)” value ([1]; 5 μM) was 398 ± 13 and the “nod gene induction (β-galactosidase activity)” value ([1]; 10 μM) was 402 ± 33. The “nod gene induction (β-galactosidase activity)” value ([1]; 25 μM) was 414 ± 17, the “nod gene induction (β-galactosidase activity)” value ([1]; 50 μM) was 435 ± 26 and the “nod gene induction (β-galactosidase activity)” value ([1]; 100 μM) was 515 ± 583. For the same compound, the “induction of nod genes (β-galactosidase activity vs control without inducer), in words” value [1] was “did not show any activity”, the “nod gene induction (β-galactosidase activity)” value ([2]; 5 μM) was 562.2 ± 26.6 and the “nod gene induction (β-galactosidase activity)” value ([2]; 10 μM) was 411.8 ± 75.3. The “nod gene induction (β-galactosidase activity)” value ([2]; 25 μM) was 473 ± 58.3, the “nod gene induction (β-galactosidase activity)” value ([2]; 50 μM) was 464.6 ± 36.2 and the “nod gene induction (β-galactosidase activity)” value ([2]; 100 μM) was 430.7 ± 55.3. For the same compound, the “nod gene induction (β-galactosidase activity)” value [3, 5] was 587 ± 66.6, the “nod gene induction (β-galactosidase activity)” value ([3]; 10 μM, control 522.6 ± 15.9) was 536.4 ± 40.1 and the “nod gene induction (β-galactosidase activity)” value ([3]; 25 μM, control 522.6 ± 15.9) was 522.4 ± 65.3. For the same compound, the “nod gene induction (β-galactosidase activity)” value ([3]; 50 μM, control 522.6 ± 15.9) was 476.1 ± 28.4, the “nod gene induction (β-galactosidase activity)” value ([3]; 100 μM, control 522.6 ± 15.9) was 519.3 ± 43.5 and the “nod gene induction (β-galactosidase activity)” value ([4]; 5 μM) was 404.1 ± 62.5. The “nod gene induction (β-galactosidase activity)” value ([4]; 10 μM) was 472.7 ± 54.3, the “nod gene induction (β-galactosidase activity)” value ([4]; 25 μM) was 435.8 ± 69.2 and the “nod gene induction (β-galactosidase activity)” value ([4]; 50 μM) was 434.2 ± 26.3. For the same compound, the “nod gene induction (β-galactosidase activity)” value ([4]; 100 μM) was 369.8 ± 114.9.
With `CC/C=C\C/C=C\C/C=C\CCCCCCCC(=O)O` [linolenic acid, (Z,Z,Z)-9,12,15-Octadecatrienoic acid] the “expression of nod genes (β-galactosidase assay), in words” value [1] was “induced the expression of nod genes”, the “nod gene induction at optimum concentration compared with optimum JA and MeJA concentrations” value [1] was “lower” and the “optimum concentration for nod gene induction” value [1] was 50 µM.
`CCCCC/C=C\C/C=C\CCCCCCCC(=O)O` [linoleic acid, (Z,Z)-9,12-Octadecadienoic acid] was tested, and the “expression of nod genes (β-galactosidase assay), in words” value [1] was “induced the expression of nod genes”, the “nod gene induction at optimum concentration compared with optimum JA and MeJA concentrations” value [1] was “lower” and the “optimum concentration for nod gene induction” value [1] was 50 µM.
